Where only a bound is given, the exact number is not on record here.

The test addresses T1, Melatonin receptor (Oryctolagus cuniculus, UniProt Q9BE38).
T1 sequence (Q9BE38 whole entry): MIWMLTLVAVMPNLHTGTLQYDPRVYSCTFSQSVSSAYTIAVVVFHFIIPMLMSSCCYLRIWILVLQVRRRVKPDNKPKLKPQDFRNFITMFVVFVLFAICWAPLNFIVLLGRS
Consider `COc1ccc2[nH]cc(CCO)c2c1`, for which the Ki is > 10000 nM.

`CC(=O)NCCc1c[nH]c2ccc(O)cc12` [N-Acetyltryptamine,5-Hydroxy]: the inhibition constant Ki amounted to 3000 nM.

Consider `CC(=O)NCCc1c[nH]c2ccccc12` [N-Acetyltryptamine], for which the Ki worked out at 1600 nM.

Compound `COc1cc2c(CCNC(C)=O)c[nH]c2cc1O` [melatonin, 6-Hydroxy] gave a Ki of 74 nM.

With `COc1cc2[nH]cc(CCNC(C)=O)c2cc1OC` [melatonin, 6-Methoxy], the affinity corresponds to a Ki of 460 nM.

Broadly, the Ki is a measure of affinity in units of concentration, obtained from inhibition or displacement. A high value points to lower affinity.

Source of the values: BindingDB's records for doi:10.1016/0197-0186(94)90100-7 (Rowett Research Institute, 1994).
